Results as given in US11077210B2, “Near-infrared fluorescent contrast bioimaging agents and methods of use thereof” (Beth Israel Deaconess Medical Center, priority 2013, dated 2021).

How the values were obtained:
SLN = assay: Sentinel lymph node (SLN) NIR fluorescence imaging (FLARE); assay type: in vivo; settings: 35 kg female pig, 5 nmol subcutaneously into bowel, 5 min; Channel 1 (700 nm) or Channel 2 (800 nm)
Experimental: (§1) Absorbance and fluorescence emission spectra were measured using fiber optic HR2000 absorbance (200-1100 nm) and USB2000FL fluorescence (350-1000 nm) spectrometers (Ocean Optics, Dunedin, Fla.). Excitation was provided by a 532 nm green laser pointer (Opcom Inc., Xiamen, China) set to 5 mW, a 655 nm red laser pointer (Opcom Inc., Xiamen, China) set to 5 mW, or a 770 nm NIR laser diode light source (Electro Optical Components, Santa Rosa, Calif.) set to 10 mW and coupled through a 300 μm core diameter, NA 0.22 fiber (Fiberguide Industries, Stirling, N.J.). In silico calculations of the partition coefficient (log D at pH 7.4) and surface molecular charge and hydrophobicity were calculated using MarvinSketch 5.2.1 by taking major microspecies at pH 7.4 (ChemAxon, Budapest, Hungary). NIR Fluorescence Imaging System The dual-NIR channel FLARE′ imaging system has been described in detail previously (26-28). […] Color and two independent NIR fluorescence emission images (≈700 nm for Channel 1 and ≈800 nm for Channel 2) were acquired simultaneously with custom software at rates up to 15 Hz over a 15 cm diameter field of view. NIR fluorescence from Channel 1 was pseudo-colored in red and NIR fluorescence from Channel 2 was pseudo-colored in lime green prior to merger with the color video image. […] Animal Models and Intraoperative NIR Fluorescence Imaging […]

stem cells = assay: Stem cell tracking: NIR fluorescence microscopy of labelled cells; assay type: cell-based; settings: 2 μM, 30 min incubation at 37° C., fixed in 2% paraformaldehyde, 10 μm sections; fluorescence microscope Channel 1 (700 nm) or Channel 2 (800 nm)
bone (rib cage) = assay: Bone NIR fluorescence imaging (FLARE); assay type: in vivo; settings: 35 kg female pig, 5 μmol intravenously, 4 hours, Channel 1 (700 nm) or Channel 2 (800 nm)
Experimental: as §1

pan lymph nodes = assay: Pan lymph node NIR fluorescence imaging (FLARE); assay type: in vivo; settings: 250 g male rat, 20 nmol intravenously, 4 hours; Channel 1 (700 nm) or Channel 2 (800 nm)
Experimental: as §1

Peyer's patches = Peyer's patches NIR fluorescence imaging (FLARE); assay type: in vivo; settings: 250 g male rat, 100 nmol intravenously, 4 hours; Channel 2 (800 nm)
Experimental: as §1

[1] = tested on: neuroendocrine tumors (insulinoma); assay: Neuroendocrine tumor NIR fluorescence imaging (FLARE); assay type: in vivo; settings: 25 g male insulinoma-bearing mouse, 140 nmol intravenously, 1 hour, pancreas imaged; Channel 1 (700 nm) or Channel 2 (800 nm)
Experimental: as §1

CSF = CSF NIR fluorescence imaging (FLARE); assay type: in vivo; settings: 35 kg female pig, 5 μmol intravenously, 4 hours; Channel 1 (700 nm) or Channel 2 (800 nm)
Experimental: as §1

brain vasculature = assay: Brain vasculature NIR fluorescence imaging (FLARE); assay type: in vivo; settings: 25 g male mouse, 25 nmol intravenously, 4 hours; Channel 1 (700 nm)
Experimental: as §1

spinal cartilage = assay: Cartilage NIR fluorescence imaging (FLARE); assay type: in vivo; settings: 35 kg female pig, 5 μmol intravenously, 4 hours, Channel 1 (700 nm) or Channel 2 (800 nm)
Experimental: as §1

prostate = assay: Prostate NIR fluorescence imaging (FLARE); assay type: in vivo; settings: 25 g male mouse, 25 nmol intravenously, 4 hours; Channel 1 (700 nm) or Channel 2 (800 nm)
Experimental: as §1

ovaries = assay: Ovary NIR fluorescence imaging (FLARE); assay type: in vivo; settings: 25 g female mouse, 25 nmol intravenously, 4 hours; Channel 1 (700 nm) or Channel 2 (800 nm)
Experimental: as §1

gallbladder = assay: Gallbladder NIR fluorescence imaging (FLARE); assay type: in vivo; settings: 25 g male mouse, 25 nmol intravenously, 4 hours; Channel 1 (700 nm) or Channel 2 (800 nm)
Experimental: as §1

Compound: CCN1/C(=C/C=C/C=C/C2=[N+](CC)c3ccc4ccccc4c3C2(C)C)C(C)(C)c2c1ccc1ccccc21 [MHI86]
- NIR fluorescence contrast of the SLN (SLN): highlighted with high contrast

Compound: CCN1/C(=C/C=C2\CCCC(/C=C/C3=[N+](CC)c4ccccc4C3(C)C)=C2Oc2ccc(CCN)cc2)C(C)(C)c2ccccc21 [PS126]
- NIR fluorescence contrast of the cytoplasm of cell (stem cells): highlighted with high contrast

Compound: CC1(C)C(/C=C/C(C/C=C2/N(CCCP(=O)(O)O)c3ccc(S(=O)(=O)[O-])cc3C2(C)C)c2ccc(CCC(=O)O)cc2)=[N+](CCCP(=O)(O)O)c2ccc(S(=O)(=O)O)cc21 (stereo not shown) [P700SO3]
- NIR fluorescence contrast of the bone (bone (rib cage)): highlighted with high contrast

Compound: CC1(C)C(/C=C/C2=C(Oc3ccc(CCC(=O)O)cc3)C(=C/C=C3/N(CCC[N+](C)(C)C)c4ccccc4C3(C)C)/CCC2)=[N+](CCC[N+](C)(C)C)c2ccccc21 [MM25]
- NIR fluorescence contrast of the SLN (SLN): highlighted with high contrast
- NIR fluorescence contrast of all lymph nodes (pan lymph nodes): highlighted with high contrast

Compound: CC1(C)C(/C=C/C=C/C=C/C=C2/N(CCC[N+](C)(C)C)c3ccccc3C2(C)C)=[N+](CCC[N+](C)(C)C)c2ccccc21 [AL30]
- NIR fluorescence contrast of the Peyer's patches (Peyer's patches): highlighted with high contrast

Compound: CN1/C(=C/C=C/C=C/C=C/C2=[N+](C)c3ccccc3C2(C)C)C(C)(C)c2ccccc21 [AL20]
- NIR fluorescence contrast of the tumors [1]: highlighted with high contrast
- NIR fluorescence contrast of the CSF (CSF): highlighted with high contrast

Compound: CNCCCN1/C(=C/C=C/C=C/c2sc3cc(O)ccc3[n+]2CCCNC)Sc2cc(O)ccc21 [ZK214]
- NIR fluorescence contrast of the brain vasculature (brain vasculature): highlighted with high contrast

Compound: C[N+](C)(C)CCCN1/C(=C/C=C/C=C/c2sc3cc(O)ccc3[n+]2CCC[N+](C)(C)C)Sc2cc(O)ccc21 [SP56]
- NIR fluorescence contrast of the cartilage (spinal cartilage): highlighted with high contrast

Compound: CN(C)c1ccc2nc3ccc(=[N+](C)C)cc-3oc2c1 [ESS61]
- NIR fluorescence contrast of the tumors [1]: highlighted with high contrast

Compound: CC1(C)C(/C=C/C2=C(Sc3ccc(CCN)cc3)C(=C/C=C3/N(CCC[N+](C)(C)C)c4ccc(S(=O)(=O)O)cc4C3(C)C)/CCC2)=[N+](CCC[N+](C)(C)C)c2ccc(S(=O)(=O)O)cc21 [LN50]
- NIR fluorescence contrast of the cartilage (spinal cartilage): highlighted with high contrast

Compound: CCN1/C(=C/C=C(/C=C/C2=[N+](CC)c3ccccc3C2(C)C)Oc2ccc(CCN)cc2)C(C)(C)c2ccccc21 [PS127]
- NIR fluorescence contrast of the cytoplasm of cell (stem cells): highlighted with high contrast

Compound: CCN(CC)c1ccc(/C=C/C2=CC(/C=C/c3ccc(N(CC)CC)cc3O)=[O+][B-](F)(F)O2)c(O)c1 [PS62]
- NIR fluorescence contrast of the prostate (prostate): highlighted with high contrast
- NIR fluorescence contrast of the ovaries (ovaries): highlighted with high contrast
- NIR fluorescence contrast of the gallbladder (gallbladder): highlighted with high contrast
